Tests used:
Test in all cases: normalised response (% of control), CellTox Green; higher = less cell death (100 = DMSO, 0 = benzethonium chloride kill control)
Details in all cases: incubation time: 72 h
CAL-120 = system: CAL-120
In short: (§1)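 Each value is the plate-normalised signal at one concentration of the series. Breast cancer cell lines (20 µl suspension) were incubated 72 h in 384-well plates with compound at 5 concentrations in 10-fold steps over a compound-specific 10,000-fold range. CellTox Green and then CellTiter-Glo were read, and each plate was scaled to 0.1 % DMSO (100) and a positive kill control (0).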

HDQ-P1 = system: HDQ-P1
In short: as §1

MDA-MB-231 = system: MDA-MB-231
In short: as §1

MDA-MB-468 = system: MDA-MB-468
In short: as §1

Row | Compound | normalised response (CAL-120) [%] | normalised response (HDQ-P1) [%] | normalised response (MDA-MB-231) [%] | normalised response (MDA-MB-468) [%]
1 | N#Cc1ccc(COC[C@H]2O[C@@H](n3c(NCc4ccc(Cl)c(Cl)c4)nc4c(N)ncnc43)[C@H](O)[C@@H]2O)cc1 (1000 nM) | 96.4 | 106 | 114 | 143
2 | N#Cc1ccc(COC[C@H]2O[C@@H](n3c(NCc4ccc(Cl)c(Cl)c4)nc4c(N)ncnc43)[C@H](O)[C@@H]2O)cc1 (10000 nM) | 98.2 | 110 | 105 | 103
3 | COc1cc(OC2CCN(C)CC2)ccc1Nc1ncc2c(n1)n(C1CCCC1)c(=O)n2C [AZ 3146] (1000 nM) | 100 | 99.6 |  | 88.7
4 | COc1cc(OC2CCN(C)CC2)ccc1Nc1ncc2c(n1)n(C1CCCC1)c(=O)n2C [AZ 3146] (10000 nM) | 94.6 | 86.1 | 81.8 | 75.5
5 | CN(C)c1nc(N(C)C)nc(N(C)C)n1 [Altretamine] (1000 nM) | 104 | 69.2 | 110 | 140
6 | CN(C)c1nc(N(C)C)nc(N(C)C)n1 [Altretamine] (10000 nM) | 102 | 94.3 | 112 | 152
7 | O=C(/C=C/c1cccc(S(=O)(=O)Nc2ccccc2)c1)NO [Belinostat] (1000 nM) | 70.4 | 103 | 22.3 | 97.7
8 | O=C(/C=C/c1cccc(S(=O)(=O)Nc2ccccc2)c1)NO [Belinostat] (10000 nM) | -14 | 76.1 | -5.71 | 43.3
9 | O=P1(N(CCCl)CCCl)NCCCO1 (stereo unspecified) [Cyclophosphamide] (4000 nM) | 101 | 112 | 113 | 100
10 | O=P1(N(CCCl)CCCl)NCCCO1 (stereo unspecified) [Cyclophosphamide] (40000 nM) | 98.7 | 107 | 102 | 
11 | C=C1C[C@@H]2[C@H](CC[C@]3(C)C(=O)CC[C@@H]23)[C@@]2(C)C=CC(=O)C=C12 [Exemestane] (1000 nM) | 105 | 116 | 99.6 | 149
12 | C=C1C[C@@H]2[C@H](CC[C@]3(C)C(=O)CC[C@@H]23)[C@@]2(C)C=CC(=O)C=C12 [Exemestane] (10000 nM) | 103 |  | 92.4 | 103
13 | COc1cc2ncnc(Nc3ccc(F)c(Cl)c3)c2cc1OCCCN1CCOCC1 [Gefitinib] (1000 nM) | 100 | 84.8 | 101 | 125
14 | COc1cc2ncnc(Nc3ccc(F)c(Cl)c3)c2cc1OCCCN1CCOCC1 [Gefitinib] (10000 nM) | 95.4 | 94.9 | 68.6 | 133
15 | O=C(Nc1ccncc1)C(=O)c1cn(Cc2ccc(Cl)cc2)c2ccccc12 [Indibulin] (1000 nM) | 89.4 | 107 | 51.6 | 91.5
16 | O=C(Nc1ccncc1)C(=O)c1cn(Cc2ccc(Cl)cc2)c2ccccc12 [Indibulin] (10000 nM) | 85.8 | 69.6 | 46.3 | 63.6
17 | NC(=O)c1ccc(I)c([N+](=O)[O-])c1 [Iniparib] (1000 nM) | 93.3 | 103 | 98.8 | 125
18 | NC(=O)c1ccc(I)c([N+](=O)[O-])c1 [Iniparib] (10000 nM) | 88.8 |  |  | 146
19 | CCc1c2c(nc3ccc(OC(=O)N4CCC(N5CCCCC5)CC4)cc13)-c1cc3c(c(=O)n1C2)COC(=O)[C@]3(O)CC [Irinotecan] (1000 nM) | 93.5 | 93.7 | 113 | 141
20 | CCc1c2c(nc3ccc(OC(=O)N4CCC(N5CCCCC5)CC4)cc13)-c1cc3c(c(=O)n1C2)COC(=O)[C@]3(O)CC [Irinotecan] (10000 nM) | 74.3 | 74.4 | 106 | 119
21 | Oc1ccc2c(c1)CC[C@H](c1ccccc1)[C@@H]2c1ccc(OCCN2CCCC2)cc1 [Lasofoxifene] (100 nM) | 93.6 | 66 | 125 | 111

Row | Compound | normalised response (CAL-120) [%] | normalised response (HDQ-P1) [%] | normalised response (MDA-MB-231) [%] | normalised response (MDA-MB-468) [%]
22 | Oc1ccc2c(c1)CC[C@H](c1ccccc1)[C@@H]2c1ccc(OCCN2CCCC2)cc1 [Lasofoxifene] (1000 nM) | 99.7 | 86.1 | 119 | 178
23 | Cc1ccc(NC(=O)c2ccc(CN3CCN(C)CC3)cc2)cc1Nc1nc(-c2cccnc2)cs1 [Masitinib] (1000 nM) | 99.2 | 89.1 | 114 | 177
24 | Cc1ccc(NC(=O)c2ccc(CN3CCN(C)CC3)cc2)cc1Nc1nc(-c2cccnc2)cs1 [Masitinib] (10000 nM) | 78.5 | 106 | -12.8 | 37
25 | O=C(Nc1cccnc1)N1CCC(Cc2cccc(Oc3ccc(C(F)(F)F)cn3)c2)CC1 [PF-3845] (1000 nM) | 106 | 70.8 | 116 | 132
26 | O=C(Nc1cccnc1)N1CCC(Cc2cccc(Oc3ccc(C(F)(F)F)cn3)c2)CC1 [PF-3845] (10000 nM) | 97.4 | 52.3 | 108 | 172
27 | Cc1[nH]c2ccccc2c1CCNCc1ccc(/C=C/C(=O)NO)cc1 [Panobinostat] (100 nM) | 28.7 | 90 | -11.6 | 82.5
28 | Cc1[nH]c2ccccc2c1CCNCc1ccc(/C=C/C(=O)NO)cc1 [Panobinostat] (1000 nM) | -30.8 | 39.2 | -36.7 | -0.17
29 | COCC1(CO)C(=O)C2CCN1CC2 (stereo unspecified) [Prima-1 Met] (1000 nM) | 99.5 | 101 | 98.3 | 103
30 | COCC1(CO)C(=O)C2CCN1CC2 (stereo unspecified) [Prima-1 Met] (10000 nM) | 92.1 | 102 | 123 | 119
31 | CNC(=O)c1cc(Oc2ccc(NC(=O)Nc3ccc(Cl)c(C(F)(F)F)c3)c(F)c2)ccn1 [Regorafenib] (1000 nM) | 102 | 97.6 | 115 | 143
32 | CNC(=O)c1cc(Oc2ccc(NC(=O)Nc3ccc(Cl)c(C(F)(F)F)c3)c(F)c2)ccn1 [Regorafenib] (10000 nM) | 97.2 | 111 | 94.3 | 152
33 | CO[C@H]1C[C@@H]2CC[C@@H](C)[C@@](O)(O2)C(=O)C(=O)N2CCCC[C@H]2C(=O)O[C@H]([C@H](C)C[C@@H]2CC[C@@H](OP(C)(C)=O)[C@H](OC)C2)CC(=O)[C@H](C)/C=C(\C)[C@@H](O)[C@@H](OC)C(=O)[C@H](C)C[C@H](C)/C=C/C=C/C=C/1C [Ridaforolimus] (100 nM) | 106 | 70.1 | 51.6 | 196
34 | c1ccc2c(CCNc3ccc(Nc4ccncc4)cc3)c[nH]c2c1 [Serdemetan] (1000 nM) | 97.1 | 99.7 | 93.9 | 12.4
35 | c1ccc2c(CCNc3ccc(Nc4ccncc4)cc3)c[nH]c2c1 [Serdemetan] (10000 nM) | 88.8 | 88.7 | 46.1 | 124
36 | CN(C)CCOc1ccc(/C(=C(/CCCl)c2ccccc2)c2ccccc2)cc1 [Toremifene] (1000 nM) | 99 |  |  | 101
37 | CN(C)CCOc1ccc(/C(=C(/CCCl)c2ccccc2)c2ccccc2)cc1 [Toremifene] (10000 nM) | 91.8 | 103 | 47.6 | 9.03
38 | CC(C)C[C@@H](C(=O)N[C@H](C(=O)OC1CCCC1)c1ccccc1)[C@H](O)C(=O)NO [Tosedostat] (1000 nM) | 39.9 | 57.9 | 14.7 | 33.4
39 | CC(C)C[C@@H](C(=O)N[C@H](C(=O)OC1CCCC1)c1ccccc1)[C@H](O)C(=O)NO [Tosedostat] (10000 nM) | 36.2 | 26 | -8.96 | -9
40 | COc1cc2/c(=N/c3ccc(Br)cc3F)nc[nH]c2cc1OCC1CCN(C)CC1 [Vandetanib] (1000 nM) | 56.3 | 40.1 | 80.5 | 128
41 | COCC[n+]1c2c(n(Cc3cnccn3)c1C)C(=O)c1ccccc1C2=O [YM155] (1000 nM) | -14.7 | -26.1 | -31.1 | -55.5
42 | COCC[n+]1c2c(n(Cc3cnccn3)c1C)C(=O)c1ccccc1C2=O [YM155] (10000 nM) | -11.6 | 25.1 | 29.1 | -110

Reference: the supplement of paper PMC4862054
